According to US11021521B2, “Pore-modified gram-negative bacteria and uses thereof” (priority 2015, dated 2021):
≈ marks a conversion by molar mass, not a printed value. Read-outs that look alike come from different tables or passages of the source.

Experiments:
Assay in all cases: microbe, parasite or virus in culture
Type in all cases: cell-based
[1] = tested on: B. thailandensis BtΔ2-RHA-BtPore (efflux-deficient, hyperporinated)
[2] = tested on: B. thailandensis Bt-RHA (wild type, empty cassette)
[3] = tested on: A. baumannii Ab-ARA (wild type, empty cassette); details: at least three independent measurements
[4] = tested on: P. aeruginosa PAO1-LAC-EcPore (hyperporinated); details: PAO1-LAC-EcPore, at least three independent measurements
[5] = tested on: B. cepacia Bc-RHA-BtPore (hyperporinated); details: Bc-RHA-BtPore
[6] = tested on: B. thailandensis BtΔ2-RHA (efflux-deficient)
[7] = tested on: A. baumannii AbΔ3-ARA-EcPore (efflux-deficient, hyperporinated); details: AbΔ3-ARA-EcPore, at least three independent measurements
[8] = tested on: P. aeruginosa PaΔ3-LAC (efflux-deficient); details: at least three independent measurements
[9] = tested on: A. baumannii AbΔ3-ARA (efflux-deficient); details: AbΔ3-ARA, at least three independent measurements
[10] = tested on: P. aeruginosa PaΔ3-LAC-EcPore (efflux-deficient, hyperporinated); details: PaΔ3-LAC-EcPore, at least three independent measurements
[11] = tested on: P. aeruginosa PAO1-LAC (wild type, empty cassette); details: at least three independent measurements
[12] = tested on: B. cepacia Bc-RHA (wild type, empty cassette)
[13] = tested on: B. thailandensis Bt-RHA-BtPore (hyperporinated)
[14] = tested on: A. baumannii Ab-ARA-EcPore (hyperporinated); details: Ab-ARA-EcPore, at least three independent measurements
[15] = Acinetobacter baumannii, read-out: MIC
[16] = Pseudomonas aeruginosa, read-out: MIC
[17] = Burkholderia cepacia, read-out: MIC

Row | Compound | MIC ([1]; Burkholderia thailandensis) | MIC ([2]; Burkholderia thailandensis) | MIC [3, 15] | MIC [4, 16] | MIC [5, 17] | MIC ([6]; Burkholderia thailandensis) | MIC [7, 15] | MIC [8, 16] | MIC [9, 15] | MIC [10, 16] | MIC [12, 17] | MIC ([13]; Burkholderia thailandensis) | MIC [14, 15] | further results
1 | CC[C@H]1OC(=O)[C@H](C)[C@@H](O[C@H]2C[C@@](C)(OC)[C@@H](O)[C@H](C)O2)[C@H](C)[C@@H](O[C@@H]2O[C@H](C)C[C@H](N(C)C)[C@H]2O)[C@](C)(O)C[C@@H](C)C(=O)[C@H](C)[C@@H](O)[C@]1(C)O [Erythromycin] | 0.5 µg/mL (≈ 0.681 µM) | 512 µg/mL (≈ 698 µM) | 5 µg/mL (≈ 6.81 µM) | 2 µg/mL (≈ 2.73 µM) | 8 to 16 µg/mL (≈ 10.9 to 21.8 µM) | 1 µg/mL (≈ 1.36 µM) | 0.08 µg/mL (≈ 0.109 µM) | 16 µg/mL (≈ 21.8 µM) |  |  |  |  |  | 
2 | Oc1cc(Cl)ccc1Oc1ccc(Cl)cc1Cl [Triclosan] | 0.06 µg/mL (≈ 0.207 µM) | 120 µg/mL (≈ 414 µM) | 0.125 µg/mL (≈ 0.432 µM) | 1020 µg/mL (≈ 3540 µM) | 60 µg/mL (≈ 207 µM) | 0.12 µg/mL (≈ 0.414 µM) | 0.001 µg/mL (≈ 0.00345 µM) | 32 µg/mL (≈ 111 µM) | 0.002 µg/mL (≈ 0.00691 µM) | 8 µg/mL (≈ 27.6 µM) | > 120 µg/mL | 30 µg/mL (≈ 104 µM) | 0.063 µg/mL (≈ 0.218 µM) | MIC [11, 16]: 1020 µg/mL (≈ 3540 µM)
3 | Gentamicin |  |  |  |  |  |  |  |  |  |  |  |  |  | MIC [1]: 2 µg/mL; MIC [2]: >64 µg/mL; MIC [3]: 4 µg/mL; MIC [9]: 8 µg/mL; MIC [12]: 128 µg/mL; MIC [5]: 16 µg/mL; MIC [6]: 4 µg/mL; MIC [13]: >64 µg/mL; MIC [7]: 8 µg/mL; MIC [14]: 4 µg/mL
4 | CC1(C)S[C@@H]2[C@H](NC(=O)[C@H](N)c3ccccc3)C(=O)N2[C@H]1C(=O)O [Ampicillin] |  |  | 2050 µg/mL (≈ 5860 µM) | 16 µg/mL (≈ 45.8 µM) | 512 µg/mL (≈ 1470 µM) |  |  |  |  |  |  |  |  | 
5 | Tobramycin [Tobramycin + Mg^2+] |  |  |  |  |  |  |  |  |  |  |  |  |  | MIC [1]: 1 µg/mL; MIC [2]: 64 µg/mL; MIC [3]: 4 µg/mL; MIC [9]: 4 µg/mL; MIC [4]: 1 µg/mL; MIC [10]: 0.5 µg/mL; MIC [11]: 2 µg/mL; MIC [12]: 32 to 64 µg/mL; MIC [5]: 4 µg/mL; MIC [6]: 1 µg/mL; MIC [13]: 64 µg/mL; MIC [7]: 2 µg/mL; MIC [8]: 0.5 µg/mL; MIC [14]: 2 µg/mL
6 | NCC[C@H](O)C(=O)N[C@@H]1C[C@H](N)[C@@H](O[C@H]2O[C@H](CN)[C@@H](O)[C@H](O)[C@H]2O)[C@H](O)[C@H]1O[C@H]1O[C@H](CO)[C@@H](O)[C@H](N)[C@H]1O [Amikacin] | 2 µg/mL (≈ 3.42 µM) | 256 µg/mL (≈ 437 µM) | 8 µg/mL (≈ 13.7 µM) | 2 µg/mL (≈ 3.42 µM) | 8 µg/mL (≈ 13.7 µM) | 4 µg/mL (≈ 6.83 µM) | 4 µg/mL (≈ 6.83 µM) |  | 4 µg/mL (≈ 6.83 µM) |  | 128 µg/mL (≈ 219 µM) | 256 µg/mL (≈ 437 µM) | 4 µg/mL (≈ 6.83 µM) | MIC [11, 16]: 2 µg/mL (≈ 3.42 µM)
7 | NC[C@H]1O[C@H](O[C@H]2[C@H](O)[C@@H](O[C@H]3O[C@H](CO)[C@@H](O)[C@H](N)[C@H]3O)[C@H](N)C[C@@H]2N)[C@H](O)[C@@H](O)[C@@H]1O [Kanamycin] | 2 µg/mL (≈ 4.13 µM) | > 64 µg/mL |  |  | 4 to 8 µg/mL (≈ 8.26 to 16.5 µM) | 4 µg/mL (≈ 8.26 µM) |  |  |  |  | 64 µg/mL (≈ 132 µM) | 64 µg/mL (≈ 132 µM) |  | 
8 | CCn1cc(C(=O)O)c(=O)c2ccc(C)nc21 [Nalidixic acid] | 1.5 µg/mL (≈ 6.46 µM) | 48 µg/mL (≈ 207 µM) | 3 µg/mL (≈ 12.9 µM) | 32 µg/mL (≈ 138 µM) | 3 µg/mL (≈ 12.9 µM) | 12 µg/mL (≈ 51.7 µM) | 0.75 µg/mL (≈ 3.23 µM) | 8 µg/mL (≈ 34.4 µM) | 1.5 µg/mL (≈ 6.46 µM) | 2 µg/mL (≈ 8.61 µM) | 24 µg/mL (≈ 103 µM) | 24 µg/mL (≈ 103 µM) | 1.5 µg/mL (≈ 6.46 µM) | 
9 | C[C@H]1COc2c(N3CCN(C)CC3)c(F)cc3c(=O)c(C(=O)O)cn1c23 [Levofloxacin] |  | 2 µg/mL (≈ 5.53 µM) | 0.125 µg/mL (≈ 0.346 µM) | 0.063 µg/mL (≈ 0.174 µM) | 0.06 µg/mL (≈ 0.166 µM) |  |  |  |  |  | 2 µg/mL (≈ 5.53 µM) | 1 µg/mL (≈ 2.77 µM) | 0.125 µg/mL (≈ 0.346 µM) | 
10 | CC[C@H]1OC(=O)[C@H](C)[C@@H](O[C@H]2C[C@@](C)(OC)[C@@H](O)[C@H](C)O2)[C@H](C)[C@@H](O[C@@H]2O[C@H](C)C[C@H](N(C)C)[C@H]2O)[C@](C)(O)C[C@@H](C)CN(C)[C@H](C)[C@@H](O)[C@]1(C)O [Azithromycin] | 0.032 µg/mL (≈ 0.0427 µM) | 128 µg/mL (≈ 171 µM) | 0.31 µg/mL (≈ 0.414 µM) | 4 µg/mL (≈ 5.34 µM) | 1 to 2 µg/mL (≈ 1.34 to 2.67 µM) | 1 µg/mL (≈ 1.34 µM) | 0.08 µg/mL (≈ 0.107 µM) | 4 µg/mL (≈ 5.34 µM) | 0.31 µg/mL (≈ 0.414 µM) | 0.063 µg/mL (≈ 0.0841 µM) | 64 µg/mL (≈ 85.4 µM) | 64 µg/mL (≈ 85.4 µM) | 0.04 µg/mL (≈ 0.0534 µM) | 
11 | CN(C)[C@@H]1C(O)=C(C(N)=O)C(=O)[C@@]2(O)C(O)=C3C(=O)c4c(O)cccc4[C@@](C)(O)[C@H]3C[C@@H]12 [Tetracycline] | 0.06 µg/mL (≈ 0.135 µM) | 2 µg/mL (≈ 4.5 µM) | 0.125 µg/mL (≈ 0.281 µM) | 0.5 µg/mL (≈ 1.13 µM) | 8 µg/mL (≈ 18 µM) | 0.125 µg/mL (≈ 0.281 µM) | 0.004 µg/mL (≈ 0.009 µM) | 2 µg/mL (≈ 4.5 µM) | 0.008 µg/mL (≈ 0.018 µM) | 0.125 µg/mL (≈ 0.281 µM) | > 8 µg/mL | 2 µg/mL (≈ 4.5 µM) | 0.031 µg/mL (≈ 0.0698 µM) | 
12 | O=C(N[C@H](CO)[C@H](O)c1ccc([N+](=O)[O-])cc1)C(Cl)Cl [Chloramphenicol] | 1 µg/mL (≈ 3.09 µM) | 8 µg/mL (≈ 24.8 µM) | 32 µg/mL (≈ 99 µM) | 2 µg/mL (≈ 6.19 µM) | 4 µg/mL (≈ 12.4 µM) | 4 µg/mL (≈ 12.4 µM) | 4 µg/mL (≈ 12.4 µM) | 1 µg/mL (≈ 3.09 µM) | 8 µg/mL (≈ 24.8 µM) | 0.125 µg/mL (≈ 0.387 µM) | 16 µg/mL (≈ 49.5 µM) | 8 µg/mL (≈ 24.8 µM) | 8 µg/mL (≈ 24.8 µM) | 
13 | CO[C@H]1/C=C/O[C@@]2(C)Oc3c(C)c(O)c4c(O)c(c(/C=N/N5CCN(C)CC5)c(O)c4c3C2=O)NC(=O)/C(C)=C\C=C\[C@H](C)[C@H](O)[C@@H](C)[C@@H](O)[C@@H](C)[C@H](OC(C)=O)[C@@H]1C [Rifampin] | 0.03 µg/mL (≈ 0.0365 µM) | 16 µg/mL (≈ 19.4 µM) | 2 µg/mL (≈ 2.43 µM) |  | 0.06 µg/mL (≈ 0.0729 µM) | 4 µg/mL (≈ 4.86 µM) | 0.25 µg/mL (≈ 0.304 µM) |  | 1 µg/mL (≈ 1.22 µM) |  | 8 µg/mL (≈ 9.72 µM) | 8 µg/mL (≈ 9.72 µM) | 0.5 µg/mL (≈ 0.608 µM) | 
14 | C[C@H]1c2cccc(O)c2C(=O)C2=C(O)[C@]3(O)C(=O)C(C(N)=O)=C(O)[C@@H](N(C)C)[C@@H]3[C@@H](O)[C@@H]21 [Doxycycline] | 0.01 µg/mL (≈ 0.0225 µM) | 3 µg/mL (≈ 6.75 µM) | 0.04 µg/mL (≈ 0.09 µM) |  | 3 µg/mL (≈ 6.75 µM) | 0.02 µg/mL (≈ 0.045 µM) | 0.0016 µg/mL (≈ 0.0036 µM) |  | 0.0016 µg/mL (≈ 0.0036 µM) |  | 6 µg/mL (≈ 13.5 µM) | 1.5 µg/mL (≈ 3.38 µM) | 0.02 µg/mL (≈ 0.045 µM) | 
15 | O=C(O)c1cn(C2CC2)c2cc(N3CCNCC3)c(F)cc2c1=O [Ciprofloxacin] |  |  |  |  |  |  |  |  |  |  | 1 µg/mL (≈ 3.02 µM) |  |  | 
16 | CC1(C)S[C@@H]2[C@H](NC(=O)C(C(=O)O)c3ccccc3)C(=O)N2[C@H]1C(=O)O (some centres unmarked) [Carbenicillin] | 8 µg/mL (≈ 21.1 µM) |  | 2050 µg/mL (≈ 5410 µM) | 2 µg/mL (≈ 5.29 µM) | 128 µg/mL (≈ 338 µM) | 256 µg/mL (≈ 677 µM) | 64 µg/mL (≈ 169 µM) | 1 µg/mL (≈ 2.64 µM) | 2050 µg/mL (≈ 5410 µM) | 0.125 µg/mL (≈ 0.33 µM) | > 1020 µg/mL | 256 µg/mL (≈ 677 µM) | 32 µg/mL (≈ 84.6 µM) | MIC [2]: 256 to 512 µg/mL
17 | Cc1onc(-c2ccccc2Cl)c1C(=O)N[C@@H]1C(=O)N2[C@@H]1SC(C)(C)[C@@H]2C(=O)O [Cloxacillin] | 0.5 µg/mL (≈ 1.15 µM) | 256 µg/mL (≈ 587 µM) | 1020 µg/mL (≈ 2350 µM) | 512 µg/mL (≈ 1170 µM) | 4 µg/mL (≈ 9.18 µM) | 32 µg/mL (≈ 73.4 µM) | 16 µg/mL (≈ 36.7 µM) | 128 µg/mL (≈ 294 µM) | 128 µg/mL (≈ 294 µM) | 8 µg/mL (≈ 18.4 µM) | 256 µg/mL (≈ 587 µM) |  | 128 µg/mL (≈ 294 µM) | MIC [13]: 128 to 256 µg/mL
